We go through 43 compounds from US20170326125A1, “MULTISUBSTITUTED AROMATIC COMPOUNDS AS INHIBITORS OF THROMBIN” (VERSEON CORPORATION, priority 2016, published 2017).

The structures appear in SMILES notation.

In this experiment the target is T1, Human thrombin (Homo sapiens, UniProt P00734).
T1 construct: purchased Haematologic Technologies Inc
The experiment in a line: Inhibition of the protease activity of thrombin (chromogenic substrate S-2238). The format is biochemical. The settings on record: inhibition of the protease activity of thrombin.

`COc1ccccc1C(=O)n1nc(-c2cccnn2)nc1NCc1ccccc1` [Cmpd 254, N-benzyl-1-[(2-methoxyphenyl)carbonyl]-3-(pyridazin-3-yl)-1H-1,2,4-triazol-5-amine] had an IC50 of less than 0.1 µM.

`COc1ccccc1C(=O)n1nc(-c2ccccn2)cc1NCc1ccccc1` [Cmpd 256, N-benzyl-1-[(2-methoxyphenyl)carbonyl]-3-(pyridin-2-yl)-1H-pyrazol-5-amine] displayed an IC50 of 0.1 to 1 µM. With `COc1ccccc1C(=O)n1nc(-c2ccncc2)nc1NCc1ccccc1` [Cmpd 257, N-benzyl-1-[(2-methoxyphenyl)carbonyl]-3-(pyridin-4-yl)-1H-1,2,4-triazol-5-amine], the half-inhibitory concentration (IC50) was less than 0.1 µM. Next, `COc1ccccc1C(=O)n1nc(-c2cccs2)nc1NCc1ccccc1` [Cmpd 258, N-benzyl-1-[(2-methoxyphenyl)carbonyl]-3-(thiophen-2-yl)-1H-1,2,4-triazol-5-amine]: less than 0.1 µM. `Cc1ccccc1C(=O)n1nc(-c2ccccn2)nc1NCc1ccccc1` [Cmpd 259, N-benzyl-1-[(2-methylphenyl)carbonyl]-3-(pyridin-2-yl)-1H-1,2,4-triazol-5-amine] had an IC50 of less than 0.1 µM. For `Cc1ccccc1C(=O)n1nc(-c2ccccn2)cc1NCc1ccccc1` [Cmpd 260, N-benzyl-1-[(2-methylphenyl)carbonyl]-3-(pyridin-2-yl)-1H-pyrazol-5-amine], the IC50 is more than 1 µM. Next, `COc1cccc(C(=O)n2nc(-c3ccccn3)nc2NCc2ccccc2)c1` [Cmpd 261, N-benzyl-1-[(3-methoxyphenyl)carbonyl]-3-(pyridin-2-yl)-1H-1,2,4-triazol-5-amine]: less than 0.1 µM.

The compound `O=C(c1ccc(Cl)cc1)n1nc(-c2ccccn2)nc1NCc1ccccc1` [Cmpd 262, N-benzyl-1-[(4-chlorophenyl)carbonyl]-3-(pyridin-2-yl)-1H-1,2,4-triazol-5-amine] registered an IC50 of less than 0.1 µM.

Compound `O=C(c1ccc(Cl)cc1)n1nc(-c2ccncc2)nc1NCc1ccccc1` [Cmpd 263, N-benzyl-1-[(4-chlorophenyl)carbonyl]-3-(pyridin-4-yl)-1H-1,2,4-triazol-5-amine] gave an IC50 of less than 0.1 µM. On to `COc1ccc(C(=O)n2nc(-c3ccccn3)nc2NCc2ccccc2)c(C)c1` [Cmpd 264, N-benzyl-1-[(4-methoxy-2-methylphenyl)carbonyl]-3-(pyridin-2-yl)-1H-1,2,4-triazol-5-amine], for which the IC50 is less than 0.1 µM. `COc1ccc(C(=O)n2nc(-c3ccccn3)nc2NCc2ccccc2)cc1` [Cmpd 265, N-benzyl-1-[(4-methoxyphenyl)carbonyl]-3-(pyridin-2-yl)-1H-1,2,4-triazol-5-amine] registered an IC50 of less than 0.1 µM. The compound `O=C(c1ccco1)n1nc(-c2ccncc2)nc1NCc1ccccc1` [Cmpd 266, N-benzyl-1-[(furan-2-yl)carbonyl]-3-(pyridin-4-yl)-1H-1,2,4-triazol-5-amine] registered an IC50 of less than 0.1 µM. Regarding `O=C(c1ccoc1)n1nc(-c2ccccn2)nc1NCc1ccccc1` [Cmpd 267, N-benzyl-1-[(furan-3-yl)carbonyl]-3-(pyridin-2-yl)-1H-1,2,4-triazol-5-amine], the IC50 is less than 0.1 µM. Next, `O=C(c1ccoc1)n1nc(-c2ccncc2)nc1NCc1ccccc1` [Cmpd 268, N-benzyl-1-[(furan-3-yl)carbonyl]-3-(pyridin-4-yl)-1H-1,2,4-triazol-5-amine]: less than 0.1 µM; `O=C(c1cccc2ccccc12)n1nc(-c2ccccn2)nc1NCc1ccccc1` [Cmpd 269, N-benzyl-1-[(naphthalen-1-yl)carbonyl]-3-(pyridin-2-yl)-1H-1,2,4-triazol-5-amine]: less than 0.1 µM; `O=C(c1cccc2ccccc12)n1nc(-c2ccccn2)cc1NCc1ccccc1` [Cmpd 270, N-benzyl-1-[(naphthalen-1-yl)carbonyl]-3-(pyridin-2-yl)-1H-pyrazol-5-amine]: more than 1 µM. `O=C(c1ccc2ccccc2c1)n1nc(-c2ccccn2)nc1NCc1ccccc1` [Cmpd 271, N-benzyl-1-[(naphthalen-2-yl)carbonyl]-3-(pyridin-2-yl)-1H-1,2,4-triazol-5-amine]: the IC50 lay in the range of 0.1 to 1 µM.

`O=C(c1ccc2ccccc2c1)n1nc(-c2ccccn2)cc1NCc1ccccc1` [Cmpd 272, N-benzyl-1-[(naphthalen-2-yl)carbonyl]-3-(pyridin-2-yl)-1H-pyrazol-5-amine] gave an IC50 of more than 1 µM. Take `CN(C)c1ccccc1C(=O)n1nc(-c2ccccn2)nc1NCc1ccccc1` [Cmpd 273, N-benzyl-1-[2-(dimethylamino)phenyl]carbonyl-3-(pyridin-2-yl)-1H-1,2,4-triazol-5-amine]: the IC50 was more than 1 µM. For the compound `CC(C)c1ccccc1C(=O)n1nc(-c2ccccn2)nc1NCc1ccccc1` [Cmpd 275, N-benzyl-1-[2-(propan-2-yl)phenyl]carbonyl-3-(pyridin-2-yl)-1H-1,2,4-triazol-5-amine], the IC50 is more than 1 µM. The figure for `CC(C)c1ccccc1C(=O)n1nc(-c2ccccn2)cc1NCc1ccccc1` [Cmpd 276, N-benzyl-1-[2-(propan-2-yl)phenyl]carbonyl-3-(pyridin-2-yl)-1H-pyrazol-5-amine] is more than 1 µM; for `O=C(c1ccccc1F)n1nc(-c2ccccc2F)cc1NCc1ccccc1` [Cmpd 277, N-benzyl-3-(2-fluorophenyl)-1-[(2-fluorophenyl)carbonyl]-1H-pyrazol-5-amine] it is 0.1 to 1 µM. As to `COc1ccccc1C(=O)n1nc(-c2ccccc2F)cc1NCc1ccccc1` [Cmpd 278, N-benzyl-3-(2-fluorophenyl)-1-[(2-methoxyphenyl)carbonyl]-1H-pyrazol-5-amine], the IC50 is more than 1 µM. In the case of `O=C(c1ccsc1)n1nc(-c2ccccc2F)cc1NCc1ccccc1` [Cmpd 279, N-benzyl-3-(2-fluorophenyl)-1-[(thiophen-3-yl)carbonyl]-1H-pyrazol-5-amine], the IC50 was more than 1 µM. The figure for `COc1ccccc1C(=O)n1nc(-c2ccco2)nc1NCc1ccccc1` [Cmpd 280, N-benzyl-3-(furan-2-yl)-1-[(2-methoxyphenyl)carbonyl]-1H-1,2,4-triazol-5-amine] is less than 0.1 µM; for `c1ccc(CNc2nc(-c3ccco3)n[nH]2)cc1` [Cmpd 281, N-benzyl-3-(furan-2-yl)-1H-1,2,4-triazol-5-amine] it is more than 1 µM; for `O=C(c1cccs1)n1nc(-c2ccccn2)nc1NCc1ccccc1` [Cmpd 282, N-benzyl-3-(pyridin-2-yl)-1-[(thiophen-2-yl)carbonyl]-1H-1,2,4-triazol-5-amine] it is less than 0.1 µM. Consider `O=C(c1ccsc1)n1nc(-c2ccccn2)nc1NCc1ccccc1` [Cmpd 283, N-benzyl-3-(pyridin-2-yl)-1-[(thiophen-3-yl)carbonyl]-1H-1,2,4-triazol-5-amine], for which the 50% inhibitory concentration (IC50) is less than 0.1 µM.

`O=C(c1ccsc1)n1nc(-c2ccccn2)cc1NCc1ccccc1` [Cmpd 284, N-benzyl-3-(pyridin-2-yl)-1-[(thiophen-3-yl)carbonyl]-1H-pyrazol-5-amine] had an IC50 of less than 0.1 µM.

Consider `O=C(c1ccccc1OC(F)(F)F)n1nc(-c2ccccn2)nc1NCc1ccccc1` [Cmpd 285, N-benzyl-3-(pyridin-2-yl)-1-[2-(trifluoromethoxy)phenyl]carbonyl-1H-1,2,4-triazol-5-amine], for which the IC50 is less than 0.1 µM. In turn, `O=C(c1ccccc1C(F)(F)F)n1nc(-c2ccccn2)nc1NCc1ccccc1` [Cmpd 286, N-benzyl-3-(pyridin-2-yl)-1-[2-(trifluoromethyl)phenyl]carbonyl-1H-1,2,4-triazol-5-amine] registered an IC50 of more than 1 µM. The compound `c1ccc(CNc2nc(-c3cccnc3)n[nH]2)cc1` [Cmpd 287, N-benzyl-3-(pyridin-3-yl)-1H-1,2,4-triazol-5-amine] registered an IC50 of more than 1 µM.

Consider `O=C(c1cccs1)n1nc(-c2ccncc2)nc1NCc1ccccc1` [Cmpd 288, N-benzyl-3-(pyridin-4-yl)-1-[(thiophen-2-yl)carbonyl]-1H-1,2,4-triazol-5-amine], for which the IC50 is less than 0.1 µM. Regarding `O=C(c1ccsc1)n1nc(-c2ccncc2)nc1NCc1ccccc1` [Cmpd 289, N-benzyl-3-(pyridin-4-yl)-1-[(thiophen-3-yl)carbonyl]-1H-1,2,4-triazol-5-amine], the IC50 was less than 0.1 µM. Compound `c1ccc(CNc2nc(-c3ccncc3)n[nH]2)cc1` [Cmpd 290, N-benzyl-3-(pyridin-4-yl)-1H-1,2,4-triazol-5-amine] showed an IC50 of more than 1 µM. Regarding `O=C(c1ccsc1)n1nc(-c2cccs2)nc1NCc1ccccc1` [Cmpd 291, N-benzyl-3-(thiophen-2-yl)-1-[(thiophen-3-yl)carbonyl]-1H-1,2,4-triazol-5-amine], the IC50 lay in the range of 0.1 to 1 µM. The compound `COc1ccccc1C(=O)N(Cc1ccccc1)c1cc(-c2ccccc2F)n[nH]1` [Cmpd 292, N-benzyl-N-[3-(2-fluorophenyl)-1H-pyrazol-5-yl]-2-methoxybenzamide] gave an IC50 of more than 1 µM.

Consider `CCN(C)C(=O)c1cc(-c2ccccn2)nn1CCc1ccc(F)cc1` [Cmpd 293, N-ethyl-1-[2-(4-fluorophenyl)ethyl]-N-methyl-3-(pyridin-2-yl)-1H-pyrazole-5-carboxamide], for which the IC50 is more than 1 µM. `CCN(C)C(=O)c1cc(-c2ccccn2)n(CCc2ccc(F)cc2)n1` [Cmpd 294, N-ethyl-1-[2-(4-fluorophenyl)ethyl]-N-methyl-5-(pyridin-2-yl)-1H-pyrazole-3-carboxamide] showed an IC50 of more than 1 µM. As for `CCNC(=O)c1cn(-c2ccccn2)nc1NCc1ccc(F)cc1` [Cmpd 295, N-ethyl-3-[(4-fluorophenyl)methyl]amino-1-(pyridin-2-yl)-1H-pyrazole-4-carboxamide], the half-inhibitory concentration (IC50) was more than 1 µM. `CCNC(=O)n1nc(-c2cccnc2)nc1NCc1ccc(F)cc1` [Cmpd 296, N-ethyl-5-[(4-fluorophenyl)methyl]amino-3-(pyridin-3-yl)-1H-1,2,4-triazole-1-carboxamide]: the IC50 was more than 1 µM. The figure for `CCN(C)C(=O)n1nc(-c2cccnc2)nc1NCc1ccc(F)cc1` [Cmpd 297, N-ethyl-5-[(4-fluorophenyl)methyl]amino-N-methyl-3-(pyridin-3-yl)-1H-1,2,4-triazole-1-carboxamide] is more than 1 µM; for `O=C(Oc1ccccc1)n1nc(-c2cccnc2)nc1NCc1ccc(F)cc1` [Cmpd 298, phenyl 5-[(4-fluorophenyl)methyl]amino-3-(pyridin-3-yl)-1H-1,2,4-triazole-1-carboxylate] it is less than 0.1 µM.

Usually IC50 stands for the concentration that gives 50% inhibition.
